Data published in PubChem BioAssay (NCI).
Where “and” joins values, the source holds several entries; their conditions need not be identical. Equal values may be shown once.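 Each compound was tested at five concentrations against cells in 96-well plates for 48 hours. GI50 marks 50% less growth. At the TGI there is no net growth.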

How the values were obtained:
Experiment in all cases: inhibition of tumour cell growth, NCI panel, 48 h
786-0 renal = test system: 786-0 renal
A498 renal = test system: A498 renal
A549 NSCLC = test system: A549 NSCLC
ACHN renal = test system: ACHN renal
BT-549 breast = test system: BT-549 breast
CAKI-1 renal = test system: CAKI-1 renal
CCRF-CEM leukemia = test system: CCRF-CEM leukemia
COLO 205 colon = test system: COLO 205 colon
DU-145 prostate = test system: DU-145 prostate
EKVX NSCLC = test system: EKVX NSCLC
HCC-2998 colon = test system: HCC-2998 colon
HCT-116 colon = test system: HCT-116 colon
HCT-15 colon = test system: HCT-15 colon
HL-60(TB) leukemia = test system: HL-60(TB) leukemia
HOP-62 NSCLC = test system: HOP-62 NSCLC
HOP-92 NSCLC = test system: HOP-92 NSCLC
HS 578T breast = test system: HS 578T breast
HT29 colon = test system: HT29 colon
IGROV1 ovarian = test system: IGROV1 ovarian
K-562 leukemia = test system: K-562 leukemia
KM12 colon = test system: KM12 colon
LOX IMVI melanoma = test system: LOX IMVI melanoma
M14 melanoma = test system: M14 melanoma
MALME-3M melanoma = test system: MALME-3M melanoma
MDA-MB-231 breast = test system: MDA-MB-231 breast
MDA-MB-435 = test system: MDA-MB-435
MDA-N = test system: MDA-N
MOLT-4 leukemia = test system: MOLT-4 leukemia
NCI-H226 lung = test system: NCI-H226 lung
NCI-H23 lung = test system: NCI-H23 lung
NCI-H460 lung = test system: NCI-H460 lung
NCI-H522 lung = test system: NCI-H522 lung
NCI/ADR-RES ovarian = test system: NCI/ADR-RES ovarian
OVCAR-3 ovarian = test system: OVCAR-3 ovarian
OVCAR-4 ovarian = test system: OVCAR-4 ovarian
OVCAR-5 ovarian = test system: OVCAR-5 ovarian
OVCAR-8 ovarian = test system: OVCAR-8 ovarian
PC-3 prostate = test system: PC-3 prostate
RXF 393 renal = test system: RXF 393 renal
SF-268 CNS = test system: SF-268 CNS
SF-295 CNS = test system: SF-295 CNS
SF-539 CNS = test system: SF-539 CNS
SK-MEL-2 melanoma = test system: SK-MEL-2 melanoma
SK-MEL-28 melanoma = test system: SK-MEL-28 melanoma
SK-OV-3 ovarian = test system: SK-OV-3 ovarian
SN12C renal = test system: SN12C renal
SNB-19 CNS = test system: SNB-19 CNS
SNB-75 CNS = test system: SNB-75 CNS
SW-620 colon = test system: SW-620 colon
TK-10 renal = test system: TK-10 renal
U251 CNS = test system: U251 CNS
UACC-257 melanoma = test system: UACC-257 melanoma
UACC-62 melanoma = test system: UACC-62 melanoma
UO-31 renal = test system: UO-31 renal
MCF7 breast = test system: MCF7 breast
RPMI-8226 leukemia = test system: RPMI-8226 leukemia
SK-MEL-5 melanoma = test system: SK-MEL-5 melanoma
SR leukemia = test system: SR leukemia

In the case of C#CC1(O)C(COP(=O)(O)OC(COCCCCCCCCCCCCCCCCCC)COP(=O)(O)OCC2OC(n3cc(F)c(=O)[nH]c3=O)CC2O)OC(n2ccc(N)nc2=O)C1O (centres undefined), the GI50 (786-0 renal) is reported as 0.547 µM, the TGI (786-0 renal) is reported as > 100 µM and the GI50 (A498 renal) is reported as 0.389 µM and 0.189 µM. For the same compound, the TGI (A498 renal) was 14 µM and 5.12 µM, the TGI (A549 NSCLC) was > 38.3 µM and 22.6 µM and the TGI (ACHN renal) was > 100 µM. The TGI (BT-549 breast) was > 42.8 µM and 8.71 µM, the TGI (CAKI-1 renal) was 6.72 µM and the GI50 (CCRF-CEM leukemia) was 0.115 µM and 0.965 µM. For the same compound, the TGI (CCRF-CEM leukemia) was 15.3 µM and > 70.6 µM, the TGI (COLO 205 colon) was 1.99 µM and 6.07 µM and the GI50 (DU-145 prostate) was 0.274 µM and 0.0722 µM. For the same compound, the TGI (DU-145 prostate) was > 100 µM, the GI50 (EKVX NSCLC) was 1.42 µM and 5.06 µM and the TGI (EKVX NSCLC) was > 35.2 µM and 71.4 µM. For the same compound, the TGI (HCC-2998 colon) was > 28.4 µM, the GI50 (HCT-116 colon) was < 0.024 µM and 0.142 µM and the TGI (HCT-116 colon) was > 100 µM. The GI50 (HCT-15 colon) was 0.134 µM and 0.335 µM, the TGI (HCT-15 colon) was > 74.9 µM and 34.4 µM and the GI50 (HL-60(TB) leukemia) was 0.0952 µM and 0.21 µM. The TGI (HL-60(TB) leukemia) was 17.9 µM and 11.7 µM, the TGI (HOP-62 NSCLC) was > 86.5 µM and 33.9 µM and the GI50 (HOP-92 NSCLC) was 33.4 µM. The TGI (HOP-92 NSCLC) was 10.6 µM and > 95.6 µM, the GI50 (HS 578T breast) was 2.12 µM and 1.03 µM and the TGI (HS 578T breast) was 44.8 µM and 17.2 µM. For the same compound, the TGI (HT29 colon) was > 100 µM and 41.5 µM, the GI50 (IGROV1 ovarian) was 0.135 µM and the TGI (IGROV1 ovarian) was 2.59 µM and 4.59 µM. For the same compound, the TGI (K-562 leukemia) was > 100 µM and 16.7 µM, the TGI (KM12 colon) was > 49.8 µM and 17 µM and the TGI (LOX IMVI melanoma) was 7.25 µM and 37.7 µM. The GI50 (M14 melanoma) was 1.53 µM and 0.218 µM, the TGI (M14 melanoma) was 24.3 µM and 2.74 µM and the GI50 (MALME-3M melanoma) was 0.742 µM and 0.202 µM. The TGI (MALME-3M melanoma) was 21.8 µM and 3.51 µM, the TGI (MDA-MB-231 breast) was 26.7 µM and 31.1 µM and the TGI (MDA-MB-435) was 3.08 µM and 5.9 µM. For the same compound, the TGI (MDA-N) was 12.4 µM and 13.7 µM, the TGI (MOLT-4 leukemia) was > 100 µM and the TGI (NCI-H226 lung) was 23.5 µM and 26 µM. For the same compound, the GI50 (NCI-H23 lung) was 0.613 µM and 2.28 µM, the TGI (NCI-H23 lung) was 20.7 µM and 33.1 µM and the TGI (NCI-H460 lung) was 15.3 µM and 15.1 µM. For the same compound, the GI50 (NCI-H522 lung) was < 0.0377 µM and 0.0758 µM, the TGI (NCI-H522 lung) was 0.223 µM and 1.52 µM and the TGI (NCI/ADR-RES ovarian) was 8.28 µM and 30.5 µM. The TGI (OVCAR-3 ovarian) was > 29.1 µM and 23.4 µM, the GI50 (OVCAR-4 ovarian) was 3.05 µM and 1.5 µM and the TGI (OVCAR-4 ovarian) was 31.4 µM and 23.4 µM. For the same compound, the GI50 (OVCAR-5 ovarian) was 1.04 µM and 2.99 µM, the TGI (OVCAR-5 ovarian) was > 46.2 µM and 68.6 µM and the GI50 (OVCAR-8 ovarian) was 0.0922 µM and 0.28 µM. The TGI (OVCAR-8 ovarian) was > 60.9 µM, the GI50 (PC-3 prostate) was 0.947 µM and 0.417 µM and the TGI (PC-3 prostate) was 24.3 µM and 11.4 µM. The GI50 (RXF 393 renal) was 0.306 µM and 2.46 µM, the TGI (RXF 393 renal) was 17.3 µM and 22.5 µM and the TGI (SF-268 CNS) was 15.9 µM and 15.1 µM. The GI50 (SF-295 CNS) was < 0.021 µM and 0.0441 µM, the TGI (SF-539 CNS) was 12.2 µM and 22.3 µM and the GI50 (SK-MEL-2 melanoma) was < 0.049 µM and 0.432 µM. The TGI (SK-MEL-2 melanoma) was 1.88 µM and 3.48 µM, the GI50 (SK-MEL-28 melanoma) was 0.618 µM and 1.49 µM and the TGI (SK-MEL-28 melanoma) was 21.8 µM and 28.8 µM. For the same compound, the TGI (SK-OV-3 ovarian) was 16.2 µM and > 100 µM, the TGI (SN12C renal) was > 65.1 µM and the TGI (SNB-19 CNS) was 16.7 µM and 15.1 µM. The GI50 (SNB-75 CNS) was 0.343 µM and 0.975 µM, the TGI (SNB-75 CNS) was 18.7 µM and 30.2 µM and the TGI (SW-620 colon) was > 100 µM and 48.1 µM. For the same compound, the TGI (TK-10 renal) was 9.09 µM and 3.83 µM, the GI50 (U251 CNS) was < 0.0428 µM and 0.177 µM and the TGI (U251 CNS) was 17.2 µM and 20.6 µM. The TGI (UACC-257 melanoma) was 97.5 µM and 55.8 µM, the TGI (UACC-62 melanoma) was 11.8 µM and 7.46 µM and the GI50 (UO-31 renal) was < 0.0376 µM and 0.115 µM. For the same compound, the TGI (UO-31 renal) was 1.15 µM and 4.26 µM.

O=c1[nH]nc(NNc2ccccc2)c2nnn(C3CCCCC3)c12 was tested, and the TGI (A549 NSCLC) was > 100 µM, the TGI (ACHN renal) was > 100 µM and the TGI (BT-549 breast) was > 100 µM. For the same compound, the TGI (CAKI-1 renal) was > 100 µM, the TGI (CCRF-CEM leukemia) was > 100 µM and the TGI (COLO 205 colon) was > 100 µM. The TGI (DU-145 prostate) was > 100 µM, the TGI (EKVX NSCLC) was > 100 µM and the TGI (HCC-2998 colon) was > 100 µM. For the same compound, the TGI (HCT-116 colon) was > 100 µM, the TGI (HCT-15 colon) was > 100 µM and the TGI (HL-60(TB) leukemia) was > 100 µM. The TGI (HOP-62 NSCLC) was > 100 µM, the TGI (HOP-92 NSCLC) was > 100 µM and the TGI (HT29 colon) was > 100 µM. For the same compound, the TGI (K-562 leukemia) was > 100 µM, the TGI (KM12 colon) was > 100 µM and the TGI (LOX IMVI melanoma) was > 100 µM. For the same compound, the TGI (M14 melanoma) was > 100 µM, the TGI (MALME-3M melanoma) was > 100 µM and the TGI (MCF7 breast) was > 100 µM. The TGI (MDA-MB-231 breast) was > 100 µM, the TGI (MDA-MB-435) was > 100 µM and the TGI (MDA-N) was > 100 µM. For the same compound, the TGI (MOLT-4 leukemia) was > 100 µM, the TGI (NCI-H23 lung) was > 100 µM and the TGI (NCI-H460 lung) was > 100 µM. The TGI (NCI/ADR-RES ovarian) was > 100 µM, the TGI (OVCAR-3 ovarian) was > 100 µM and the TGI (OVCAR-4 ovarian) was > 100 µM. The TGI (OVCAR-5 ovarian) was > 100 µM, the TGI (OVCAR-8 ovarian) was > 100 µM and the TGI (PC-3 prostate) was > 100 µM. The TGI (RPMI-8226 leukemia) was > 100 µM, the TGI (SF-295 CNS) was > 100 µM and the TGI (SK-MEL-2 melanoma) was > 100 µM. The TGI (SK-MEL-28 melanoma) was > 100 µM, the TGI (SK-MEL-5 melanoma) was > 100 µM and the TGI (SN12C renal) was > 100 µM. For the same compound, the TGI (SNB-19 CNS) was > 100 µM, the TGI (SR leukemia) was > 100 µM and the TGI (TK-10 renal) was > 100 µM. For the same compound, the TGI (U251 CNS) was > 100 µM, the TGI (UACC-257 melanoma) was > 100 µM and the TGI (UO-31 renal) was > 100 µM.
